Laboratory results as given in patent publication US20100331363A1, “TREATMENT OF MITOCHONDRIAL DISORDERS USING A FARNESYL TRANSFERASE INHIBITOR” (Link Medicine Corporation, priority 2008, published 2010).
Entries after “also recorded” stand apart in the source; their conditions may differ.

Assays:
[1] = system: Aβ; assay: Aβ immunohistochemistry, Thioflavin-S and Aβ40/Aβ42 ELISA in APP/PS1 transgenic mice; format: in vivo, mouse
From the text: Immunohistochemistry and quantification of stained cells: For evaluation of α-synuclein immunoreactivity (IR), 5 sagittal cryo-cut sections (10 μm slice thickness) from five different layers were used for counting of IR cells in the cortex and hippocampus. Brain sections were stained with a monoclonal human α-synuclein specific antibody (Alexis®; Cat#804-258-L001; dilution 1:5), followed by a secondary Ab Cy 2-Goat Anti-Rat (Jackson ImmunoResearch®; dilution 1:200). IR positive cells were quantified using specialized image analysis software (Image Pro Plus, version 4.5.1.29). For Tau transgenic animals, 5 μm thick coronal paraffin sections were stained with the monoclonal mouse anti-human TAU-antibodies (AT180—1:100; HT7—1:500) and visualized using an anti-mouse Cy3 secondary antibody (1:500, Jackson Laboratories®). Images were evaluated with ImageProPlus (version 6.2) image analysis software. For APP/PS1 transgenic animals sagittal hemisections (40 μm) were collected and processed for Aβ immunohistochemistry using an 6E10 antibody, Thioflavin-S staining. Primary antibodies were detected by the ABC method.
ELISA quantification of α-Synuclein in the α-Synuclein transgenic animals: Brain homogenate was centrifuged and the supernatant saved as fraction F1. The pellet was washed then resuspended and saved as fraction F2. Plates (Nunc, 464718) were coated with SYN-1 (1:1000, BD Transduction Labs, 610787). Monomeric recombinant α-synuclein was included as an internal standard. Biotinylated antibody FL-140 (1:300, Santa Cruz Biotechnology, sc-10717-B) and ExtrAvidin-Alkaline phosphatase (3:5000, Sigma, E2636) was added followed by pNPP substrate solution (Sigma, N1891). Raw absorbance (405 nm) was then normalized to the total protein concentration of each sample. In the APP/PS1 transgenic animal, brains were homogenized and the supernatant, Faction 1, was separated from the pellet. The pellets were further processed with addition of NP40 and Triton X-100. The supernatant was separated from the pellet as the insoluble membrane, Fraction 2, and was dissolved in 8M Guanidine. To quantify the amount of human Aβ-40 and Aβ-42, ELISA kits were used (The Genetics Company, Zurich, Switzerland).
Mice were treated with LNK-754-TS for two months, tested for performance in the Morris water maze (MWM), and then sacrificed for immunohistochemical (Aβimmunoreactivity) and biochemical (ELISA measurement of Aβ40 and Aβ42) analysis.

[2] = system: TAU; assay: TAU441 transgenic mice, TAU immunoreactivity (AT180, HT7) in amygdala; format: in vivo, mouse; settings: 0.09 mg/kg once every 24 hours, three months, vs vehicle
Description: Animals and treatments: Male and female human WT alpha-synuclein over-expressing transgenic mice^32 at 6 months of age were given vehicle (10% beta-cyclodextrin) or LNK-754-TS (0.09, 0.9 and 9 mg/kg) per oral gavage twice daily for 3 months or animals at 7 months of age were given vehicle (2.5% beta-cyclodextrin) or LNK-754-TS (2 mg/kg) once every three days for 3 months. […]
Immunohistochemistry and quantification of stained cells: For evaluation of α-synuclein immunoreactivity (IR), 5 sagittal cryo-cut sections (10 μm slice thickness) from five different layers were used for counting of IR cells in the cortex and hippocampus. […] IR positive cells were quantified using specialized image analysis software (Image Pro Plus, version 4.5.1.29). […] Images were evaluated with ImageProPlus (version 6.2) image analysis software. […] Primary antibodies were detected by the ABC method.
This study was designed to evaluate the effects of a treatment with LNK-754-TS dosed at 0.09 mg per kg on behavior, TAU and TAU-pT231 levels, and brain morphology of TAU441 Tg mice. Histological evaluations were performed to quantitatively evaluate TAU pathology. TAU depositions were determined using the monoclonal TAU-antibodies AT180 and HT7. […] Afterwards images were evaluated with ImageProPlus (version 6.2) image analysis software (FIG. 10A).

[3] = system: human α-synuclein; assay: Masliah D-line α-synuclein transgenic mouse, α-synuclein immunoreactivity and ELISA; format: in vivo; settings: 0.09 mg/kg, second trial (FIG. 2B)
[4] = system: 3T3H-ras (61 L) xenograft tumor; Ras farnesylation; settings: continuous infusion, 7 day treatment, cited from earlier work
[5] = system: INS1 cells; assay: Glucolipotoxicity-induced mitochondrial fragmentation in INS1 cells; format: cell-based; settings: 1 nM
Description: To determine the effect of LNK-754 on glucolipotoxicity-induced mitochondrial fragmentation, LNK-754 at 1 nM and 100 nM concentrations was cultured with INS1 cells in media containing palmitate according to methods and procedures described in Molina et. al. 2009. […] Treatment with 1 nM LNK-754 results in about a 70% increase in normal mitochondrial morphology in comparison with no treatment with LNK-754. […] Treatment with 1 nM LNK-754 results in about a 55% decrease in fragmentation induced by palmitate. Low dose LNK-754 protected INS1 cells from glucolipotoxicity-induced mitochondrial fragmentation as evident from the striking mitochondrial imaging results.

[6] = 0.9 mg/kg once every 24 hr, two months

Structure (SMILES)	Thioflavin-S staining in the subiculum [1, 6]	levels of Aβ40/Aβ42 from whole brain fractions, ELISA [1, 6]	number of Aβ (6E10) immunoreactive plaques in the subiculum ([1]; 0.9 mg/kg once every 24 hr, two months, vs vehicle)	Aβ40 or Aβ42 levels, Aβ immunoreactivity or Thio-S staining ([1]; 0.9 mg/kg, 12 days)	phosphorylated Tau (AT180) immunoreactivity in amygdala [2]	total TAU (HT7) immunoreactivity [2]	number of α-synuclein positive neurons [3]	inhibition of Ras farnesylation at which significant inhibition of tumor growth was seen ([4]; tumor tissue)	continuous serum level at which significant inhibition of tumor growth was seen [4]	decrease in fragmentation induced by palmitate [5] [%]	increase in normal mitochondrial morphology ([5]; palmitate, vs no treatment) [%]
C#Cc1cccc(-c2cc(=O)n(C)c3ccc([C@](O)(c4ccc(Cl)cc4)c4cncn4C)cc23)c1 [LNK-754-TS, (R)-6-[(4-chlorophenyl)-hydroxyl-(1-methyl-1-H-imidazol-5-yl)-methyl]-4-(3-ethynylphenyl)-1-methyl-2-(1H)-quinonlinone (2S, 3S)-dihydroxybutanedioate]	no statistically significant changes	no statistically significant changes	lesser, but still significant, effect; also recorded: significant decrease	no significant reduction	significantly decreased; also recorded: significant reduction; also recorded: significantly reduced	not significantly reduced; also recorded: did not change	–	–	–	–	–
C#Cc1cccc(-c2cc(=O)n(C)c3ccc([C@](O)(c4ccc(Cl)cc4)c4cncn4C)cc23)c1 [LNK-754, (R)-6-[(4-chlorophenyl)-hydroxyl-(1-methyl-1-H-imidazol-5-yl)-methyl]-4-(3-ethynylphenyl)-1-methyl-2-(1H)-quinonlinone]	–	–	–	–	–	–	significantly lowered	at least 50%	above 100 ng/mL	~55	~70
